Experiments:
[1] = tested on: ISC-enriched organoids; assay: Primary screen, 384-well 2.5-D organoid differentiation (ENR+CD, 6 days): basal lysozyme secretion (LYZ.NS); assay type: cell-based, murine; details: for Dose.FC.LYZ.NS: FC vs plate median; for SSMD.LYZ.NS: strictly standardized mean difference
Description: (§1) High-throughput screening.

[2] = tested on: ISC-enriched organoids; assay: Primary screen, 384-well 2.5-D organoid differentiation (ENR+CD, 6 days): carbachol-induced lysozyme secretion (LYZ.S); assay type: cell-based, murine; details: primary screen; for Dose.FC.LYZ.S: FC vs plate median; for Z.LYZ.S: standard z score; for SSMD.LYZ.S: strictly standardized mean difference
Description: as §1

[3] = tested on: ISC-enriched organoids; assay: Primary screen, 384-well 2.5-D organoid differentiation (ENR+CD, 6 days, Target Selective Inhibitor Library, vs whole-plate median): ATP (CellTiter-Glo 3D, CTG); details: for Dose.FC.CTG: FC vs plate median; for SSMD.CTG: strictly standardized mean difference
[4] = primary screen, dose 0.08 uM, ENR+CD 6 days
[5] = primary screen, dose 0.08 uM, standard z score of FC
[6] = primary screen, dose 0.40 uM, ENR+CD 6 days
[7] = primary screen, dose 0.40 uM, standard z score of FC
[8] = primary screen, dose 2.00 uM, ENR+CD 6 days
[9] = primary screen, dose 2.00 uM, standard z score of FC
[10] = primary screen, dose 10.00 uM, ENR+CD 6 days
[11] = primary screen, dose 10.00 uM, standard z score of FC
[12] = Dose 0.08 uM, primary screen, standard z score
[13] = Dose 0.40 uM, primary screen, standard z score
[14] = Dose 2.00 uM, primary screen, standard z score
[15] = Dose 10.00 uM, primary screen, standard z score
[16] = primary screen, 1st of the 4 dose lines of the treatment (dose not given)
[17] = primary screen, 2nd of the 4 dose lines of the treatment (dose not given)
[18] = primary screen, 3rd of the 4 dose lines of the treatment (dose not given)
[19] = primary screen, 4th of the 4 dose lines of the treatment (dose not given)
[20] = 1st of the 4 dose lines of the treatment (dose not given)
[21] = 2nd of the 4 dose lines of the treatment (dose not given)
[22] = 3rd of the 4 dose lines of the treatment (dose not given)
[23] = 4th of the 4 dose lines of the treatment (dose not given)
[24] = Dose 0.08 uM, standard z score of FC
[25] = Dose 0.40 uM, standard z score of FC
[26] = Dose 2.00 uM, standard z score of FC
[27] = Dose 10.00 uM, standard z score of FC

`O=C1NC(=O)/C(=C/c2ccc(-c3ccc(F)cc3O)o2)S1` [AS-252424] gave a Dose.FC.LYZ.NS [1, 4] of 0.070 log 2 fold change, a Z.LYZ.NS [1, 5] of 0.609 and a Dose.FC.LYZ.NS [1, 6] of −0.042 log 2 fold change. For the same compound, the Z.LYZ.NS [1, 7] was −0.368, the Dose.FC.LYZ.NS [1, 8] was −0.080 log 2 fold change and the Z.LYZ.NS [1, 9] was −0.695. It also gave a Dose.FC.LYZ.NS [1, 10] of −0.077 log 2 fold change, a Z.LYZ.NS [1, 11] of −0.671 and a Dose.FC.LYZ.S ([2]; dose 0.08 uM, ENR+CD 6 days) of 0.072 log 2 fold change. It also gave a Dose.FC.LYZ.S ([2]; dose 0.40 uM, ENR+CD 6 days) of −0.008 log 2 fold change, a Dose.FC.LYZ.S ([2]; dose 2.00 uM, ENR+CD 6 days) of −0.074 log 2 fold change and a Dose.FC.LYZ.S ([2]; dose 10.00 uM, ENR+CD 6 days) of −0.022 log 2 fold change. The Dose.FC.CTG [3, 4] was 0.139 log 2 fold change, the Z.CTG [3, 5] was 0.333 and the Dose.FC.CTG [3, 6] was −0.074 log 2 fold change. For the same compound, the Z.CTG [3, 7] was −0.176, the Dose.FC.CTG [3, 8] was −0.359 log 2 fold change and the Z.CTG [3, 9] was −0.858. It also gave a Dose.FC.CTG [3, 10] of −0.204 log 2 fold change and a Z.CTG [3, 11] of −0.487.
For `Cc1noc(-c2ccc(CSCCC(=O)O)cc2)c1NC(=O)OC(C)c1ccccc1Cl` (stereo not drawn) [Ki16425], the Dose.FC.LYZ.NS ([1]; Dose 0.08 uM, primary screen) was 0.001 log 2 fold change, the Z.LYZ.NS [1, 12] was 0.005 and the Dose.FC.LYZ.NS ([1]; Dose 0.40 uM, primary screen) was 0.117 log 2 fold change. The Z.LYZ.NS [1, 13] was 1.017, the Dose.FC.LYZ.NS ([1]; Dose 2.00 uM, primary screen) was −0.008 log 2 fold change and the Z.LYZ.NS [1, 14] was −0.069. The Dose.FC.LYZ.NS ([1]; Dose 10.00 uM, primary screen) was −0.038 log 2 fold change, the Z.LYZ.NS [1, 15] was −0.327 and the SSMD.LYZ.NS [1, 16] was 0.006. The SSMD.LYZ.NS [1, 17] was 0.483, the SSMD.LYZ.NS [1, 18] was −0.072 and the SSMD.LYZ.NS [1, 19] was −0.246. For the same compound, the Dose.FC.LYZ.S ([2]; Dose 0.08 uM) was 0.022 log 2 fold change, the Dose.FC.LYZ.S ([2]; Dose 0.40 uM) was 0.114 log 2 fold change and the Dose.FC.LYZ.S ([2]; Dose 2.00 uM) was −0.021 log 2 fold change. For the same compound, the Dose.FC.LYZ.S ([2]; Dose 10.00 uM) was −0.071 log 2 fold change, the Z.LYZ.S [2, 20] was 0.142 and the Z.LYZ.S [2, 21] was 0.739. It also gave a Z.LYZ.S [2, 22] of −0.135, a Z.LYZ.S [2, 23] of −0.459 and an SSMD.LYZ.S [2, 20] of 0.130. The SSMD.LYZ.S [2, 21] was 0.421, the SSMD.LYZ.S [2, 22] was −0.133 and the SSMD.LYZ.S [2, 23] was −0.394. It also gave a Dose.FC.CTG ([3]; Dose 0.08 uM, primary screen) of −0.051 log 2 fold change, a Z.CTG [3, 12] of −0.121 and a Dose.FC.CTG ([3]; Dose 0.40 uM, primary screen) of −0.002 log 2 fold change. For the same compound, the Z.CTG [3, 13] was −0.005, the Dose.FC.CTG ([3]; Dose 2.00 uM, primary screen) was −0.078 log 2 fold change and the Z.CTG [3, 14] was −0.185. It also gave a Dose.FC.CTG ([3]; Dose 10.00 uM, primary screen) of −0.165 log 2 fold change, a Z.CTG [3, 15] of −0.394 and an SSMD.CTG [3, 16] of −0.145. It also gave an SSMD.CTG [3, 17] of −0.008, an SSMD.CTG [3, 18] of −0.226 and an SSMD.CTG [3, 19] of −0.527.
In the case of `CC(C)(F)C[C@H](N[C@@H](c1ccc(-c2ccc(S(C)(=O)=O)cc2)cc1)C(F)(F)F)C(=O)NC1(C#N)CC1` [Odanacatib (MK-0822)], the Dose.FC.LYZ.NS ([1]; Dose 0.08 uM, primary screen) is reported as 0.086 log 2 fold change, the Z.LYZ.NS [1, 24] is reported as 0.752 and the Dose.FC.LYZ.NS ([1]; Dose 0.40 uM, primary screen) is reported as 0.162 log 2 fold change. It also gave a Z.LYZ.NS [1, 25] of 1.409, a Dose.FC.LYZ.NS ([1]; Dose 2.00 uM, primary screen) of 0.024 log 2 fold change and a Z.LYZ.NS [1, 26] of 0.212. It also gave a Dose.FC.LYZ.NS ([1]; Dose 10.00 uM, primary screen) of −0.035 log 2 fold change, a Z.LYZ.NS [1, 27] of −0.307 and a Dose.FC.LYZ.S ([2]; Dose 0.08 uM) of 0.091 log 2 fold change. For the same compound, the Dose.FC.LYZ.S ([2]; Dose 0.40 uM) was 0.170 log 2 fold change, the Dose.FC.LYZ.S ([2]; Dose 2.00 uM) was 0.036 log 2 fold change and the Dose.FC.LYZ.S ([2]; Dose 10.00 uM) was −0.074 log 2 fold change. The Dose.FC.CTG ([3]; Dose 0.08 uM, primary screen) was 0.119 log 2 fold change, the Z.CTG [3, 24] was 0.285 and the Dose.FC.CTG ([3]; Dose 0.40 uM, primary screen) was 0.208 log 2 fold change. It also gave a Z.CTG [3, 25] of 0.496, a Dose.FC.CTG ([3]; Dose 2.00 uM, primary screen) of −0.008 log 2 fold change and a Z.CTG [3, 26] of −0.020. For the same compound, the Dose.FC.CTG ([3]; Dose 10.00 uM, primary screen) was 0.006 log 2 fold change and the Z.CTG [3, 27] was 0.015.
`CN(C)C(=O)Nc1cccc(-c2ccc(N(C)C)cc2)c1` [Atglistatin] gave a Dose.FC.LYZ.NS [1, 4] of 0.069 log 2 fold change, a Z.LYZ.NS [1, 5] of 0.604 and a Dose.FC.LYZ.NS [1, 6] of 0.135 log 2 fold change. The Z.LYZ.NS [1, 7] was 1.176, the Dose.FC.LYZ.NS [1, 8] was 0.070 log 2 fold change and the Z.LYZ.NS [1, 9] was 0.613. It also gave a Dose.FC.LYZ.NS [1, 10] of −0.016 log 2 fold change, a Z.LYZ.NS [1, 11] of −0.142 and a Dose.FC.LYZ.S ([2]; dose 0.08 uM, ENR+CD 6 days) of 0.028 log 2 fold change. It also gave a Dose.FC.LYZ.S ([2]; dose 0.40 uM, ENR+CD 6 days) of −0.035 log 2 fold change, a Dose.FC.LYZ.S ([2]; dose 2.00 uM, ENR+CD 6 days) of 0.026 log 2 fold change and a Dose.FC.LYZ.S ([2]; dose 10.00 uM, ENR+CD 6 days) of 0.012 log 2 fold change. The Dose.FC.CTG [3, 4] was 0.057 log 2 fold change, the Z.CTG [3, 5] was 0.137 and the Dose.FC.CTG [3, 6] was 0.004 log 2 fold change. It also gave a Z.CTG [3, 7] of 0.009, a Dose.FC.CTG [3, 8] of −0.045 log 2 fold change and a Z.CTG [3, 9] of −0.108. It also gave a Dose.FC.CTG [3, 10] of −0.431 log 2 fold change and a Z.CTG [3, 11] of −1.031.

Source: US20230398130A1, “METHODS AND COMPOSITIONS FOR DIFFERENTIATING STEM CELLS” (Massachusetts Institute of Technology, priority 2020, published 2023)
